Measured values from ChEMBL document CHEMBL1687791, “Identification and characterization of four azole-resistant erg3 mutants of Candida albicans” (2010).
≈ marks a conversion by molar mass, not a printed value.

How the values were obtained:
Type in all cases: functional
[1] = test system: Candida albicans; experiment: Antifungal activity against Candida albicans isolate 1008 harboring ERG3 K97E, L193P, V237A, A351V, A353T and ERG11 E266D mutant genes by broth microdilution method
[2] = test system: Candida albicans; experiment: Antifungal activity against Candida albicans isolate 177 by broth dilution method
[3] = test system: Candida albicans; experiment: Antifungal activity against Candida albicans isolate 12 harboring ERG3 W332R mutant gene by broth microdilution method
[4] = test system: Candida albicans; experiment: Antifungal activity against Candida albicans isolate 6 by broth microdilution method
[5] = test system: Candida albicans; experiment: Antifungal activity against Candida albicans isolate 14 by broth microdilution method
[6] = test system: Candida albicans; experiment: Antifungal activity against Candida albicans isolate 490 harboring ERG3 D147G, T330A, A351V and ERG11 F72S, T229A, E266D, N440S, V488I, R523G mutant genes by broth microdilution method
[7] = test system: Candida albicans; experiment: Antifungal activity against Candida albicans isolate 488 harboring ERG3 H243N, T330A, A351V and ERG11 D225G, E266D, E391G, V488I mutant genes by broth microdilution method
[8] = test system: Candida albicans; experiment: Antifungal activity against Candida albicans isolate 12 harboring ERG3 W332R mutant gene assessed as eburicol content in total sterol composition at 0.5 times MIC by GC-MS analysis
[9] = test system: Candida albicans; experiment: Antifungal activity against Candida albicans isolate 490 harboring ERG3 D147G, T330A, A351V and ERG11 F72S, T229A, E266D, N440S, V488I, R523G mutant genes by broth microdilution method in presence of 10 uM drug efflux inhibitor FK506
[10] = test system: Candida albicans; experiment: Antifungal activity against Candida albicans isolate 177 assessed as ergosterol content in total sterol composition at 0.5 times MIC by GC-MS analysis
[11] = test system: Candida albicans; experiment: Antifungal activity against Candida albicans isolate 488 harboring ERG3 H243N, T330A, A351V and ERG11 D225G, E266D, E391G, V488I mutant genes by broth microdilution method in presence of 10 uM drug efflux inhibitor FK506
[12] = test system: Candida albicans; experiment: Antifungal activity against Candida albicans isolate 1008 harboring ERG3 K97E, L193P, V237A, A351V, A353T and ERG11 E266D mutant genes by broth microdilution method in presence of 10 uM drug efflux inhibitor FK506
[13] = test system: Candida albicans; experiment: Antifungal activity against Candida albicans isolate 14 assessed as ergosterol content in total sterol composition at 0.5 times MIC by GC-MS analysis
[14] = test system: Candida albicans; experiment: Antifungal activity against Candida albicans isolate 6 assessed as eburicol content in total sterol composition at 0.5 times MIC by GC-MS analysis
[15] = test system: Candida albicans; experiment: Antifungal activity against Candida albicans isolate 1008 harboring ERG3 K97E, L193P, V237A, A351V, A353T and ERG11 E266D mutant genes assessed as eburicol content in total sterol composition at 0.5 times MIC by GC-MS analysis
[16] = test system: Candida albicans; experiment: Antifungal activity against Candida albicans isolate 488 harboring ERG3 H243N, T330A, A351V and ERG11 D225G, E266D, E391G, V488I mutant genes assessed as 14alpha-methylergosta-8,24(28)-dien-3beta,6alpha-diol content in total sterol composition at 0.5 times MIC by GC-MS analysis
[17] = test system: Candida albicans; experiment: Antifungal activity against Candida albicans isolate 12 harboring ERG3 W332R mutant gene by broth microdilution method in presence of 10 uM drug efflux inhibitor FK506
[18] = test system: Candida albicans; experiment: Antifungal activity against Candida albicans isolate 12 harboring ERG3 W332R mutant gene assessed as ergosta 7,22-dienol content in total sterol composition at 0.5 times MIC by GC-MS analysis
[19] = test system: Candida albicans; experiment: Antifungal activity against Candida albicans isolate 12 harboring ERG3 W332R mutant gene assessed as ergosterol content in total sterol composition at 0.5 times MIC by GC-MS analysis
[20] = test system: Candida albicans; experiment: Antifungal activity against Candida albicans isolate 490 harboring ERG3 D147G, T330A, A351V and ERG11 F72S, T229A, E266D, N440S, V488I, R523G mutant genes assessed as ergosterol content in total sterol composition at 0.5 times MIC by GC-MS analysis
[21] = test system: Candida albicans; experiment: Antifungal activity against Candida albicans isolate 1008 harboring ERG3 K97E, L193P, V237A, A351V, A353T and ERG11 E266D mutant genes assessed as lanosterol/obtusifoliol content in total sterol composition at 0.5 times MIC by GC-MS analysis
[22] = test system: Candida albicans; experiment: Antifungal activity against Candida albicans isolate 177 assessed as lanosterol/obtusifoliol content in total sterol composition at 0.5 times MIC by GC-MS analysis
[23] = test system: Candida albicans; experiment: Antifungal activity against Candida albicans isolate 488 harboring ERG3 H243N, T330A, A351V and ERG11 D225G, E266D, E391G, V488I mutant genes assessed as eburicol content in total sterol composition at 0.5 times MIC by GC-MS analysis
[24] = test system: Candida albicans; experiment: Antifungal activity against Candida albicans isolate 6 assessed as ergosterol content in total sterol composition at 0.5 times MIC by GC-MS analysis
[25] = test system: Candida albicans; experiment: Antifungal activity against Candida albicans isolate 177 assessed as eburicol content in total sterol composition at 0.5 times MIC by GC-MS analysis
[26] = test system: Candida albicans; experiment: Antifungal activity against Candida albicans isolate 6 by broth microdilution method in presence of 10 uM drug efflux inhibitor FK506
[27] = test system: Candida albicans; experiment: Antifungal activity against Candida albicans isolate 14 by broth microdilution method in presence of 10 uM drug efflux inhibitor FK506
[28] = test system: Candida albicans; experiment: Antifungal activity against Candida albicans isolate 177 assessed as 14alpha-methylergosta-8,24(28)-dien-3beta,6alpha-diol content in total sterol composition at 0.5 times MIC by GC-MS analysis
[29] = test system: Candida albicans; experiment: Antifungal activity against Candida albicans isolate 490 harboring ERG3 D147G, T330A, A351V and ERG11 F72S, T229A, E266D, N440S, V488I, R523G mutant genes assessed as 14alpha-methyl fecosterol content in total sterol composition at 0.5 times MIC by GC-MS analysis
[30] = test system: Candida albicans; experiment: Antifungal activity against Candida albicans isolate 177 assessed as 14alpha-methyl fecosterol content in total sterol composition at 0.5 times MIC by GC-MS analysis
[31] = test system: Candida albicans; experiment: Antifungal activity against Candida albicans isolate 14 assessed as lanosterol/obtusifoliol content in total sterol composition at 0.5 times MIC by GC-MS analysis
[32] = test system: Candida albicans; experiment: Antifungal activity against Candida albicans isolate 12 harboring ERG3 W332R mutant gene assessed as 14alpha-methyl fecosterol content in total sterol composition at 0.5 times MIC by GC-MS analysis
[33] = test system: Candida albicans; experiment: Antifungal activity against Candida albicans isolate 1008 harboring ERG3 K97E, L193P, V237A, A351V, A353T and ERG11 E266D mutant genes assessed as 14alpha-methyl fecosterol content in total sterol composition at 0.5 times MIC by GC-MS analysis
[34] = test system: Candida albicans; experiment: Antifungal activity against Candida albicans isolate 490 harboring ERG3 D147G, T330A, A351V and ERG11 F72S, T229A, E266D, N440S, V488I, R523G mutant genes assessed as 14alpha-methylergosta-8,24(28)-dien-3beta,6alpha-diol content in total sterol composition at 0.5 times MIC by GC-MS analysis
[35] = test system: Candida albicans; experiment: Antifungal activity against Candida albicans isolate 12 harboring ERG3 W332R mutant gene assessed as 14alpha-methylergosta-8,24(28)-dien-3beta,6alpha-diol content in total sterol composition at 0.5 times MIC by GC-MS analysis
[36] = test system: Candida albicans; experiment: Antifungal activity against Candida albicans isolate 488 harboring ERG3 H243N, T330A, A351V and ERG11 D225G, E266D, E391G, V488I mutant genes assessed as 14alpha-methyl fecosterol content in total sterol composition at 0.5 times MIC by GC-MS analysis
[37] = test system: Candida albicans; experiment: Antifungal activity against Candida albicans isolate 488 harboring ERG3 H243N, T330A, A351V and ERG11 D225G, E266D, E391G, V488I mutant genes assessed as lanosterol/obtusifoliol content in total sterol composition at 0.5 times MIC by GC-MS analysis
[38] = test system: Candida albicans; experiment: Antifungal activity against Candida albicans isolate 488 harboring ERG3 H243N, T330A, A351V and ERG11 D225G, E266D, E391G, V488I mutant genes assessed as ergosterol content in total sterol composition at 0.5 times MIC by GC-MS analysis
[39] = test system: Candida albicans; experiment: Antifungal activity against Candida albicans isolate 12 harboring ERG3 W332R mutant gene assessed as lanosterol/obtusifoliol content in total sterol composition at 0.5 times MIC by GC-MS analysis
[40] = test system: Candida albicans; experiment: Antifungal activity against Candida albicans isolate 177 by broth dilution method in presence of 10 uM drug efflux inhibitor FK506
[41] = test system: Candida albicans; experiment: Antifungal activity against Candida albicans isolate 490 harboring ERG3 D147G, T330A, A351V and ERG11 F72S, T229A, E266D, N440S, V488I, R523G mutant genes assessed as lanosterol/obtusifoliol content in total sterol composition at 0.5 times MIC by GC-MS analysis

## C[C@@H]1[C@H](O)[C@@H](C)/C=C/C=C/C=C/C=C/C=C/C=C/C=C/[C@H](O[C@@H]2O[C@H](C)[C@@H](O)[C@H](N)[C@@H]2O)C[C@@H]2O[C@](O)(C[C@@H](O)C[C@@H](O)[C@H](O)CC[C@@H](O)C[C@@H](O)CC(=O)O[C@H]1C)C[C@H](O)[C@H]2C(=O)O [AMPHOTERICIN B]
[1]
  MIC: 1 µg/mL (≈ 1.08 µM)
[2]
  MIC: 0.25 µg/mL (≈ 0.271 µM)
[3]
  MIC: 0.5 µg/mL (≈ 0.541 µM)
[4]
  MIC: 0.25 µg/mL (≈ 0.271 µM)
[5]
  MIC: 0.25 µg/mL (≈ 0.271 µM)
[6]
  MIC: 0.25 µg/mL (≈ 0.271 µM)
[7]
  MIC: 0.25 µg/mL (≈ 0.271 µM)

## OC(Cn1cncn1)(Cn1cncn1)c1ccc(F)cc1F [FLUCONAZOLE]
[8]
  Activity: 11.6%
[1]
  MIC: > 256 µg/mL
[9]
  MIC: 2 µg/mL
[2]
  MIC: 256 µg/mL (≈ 836 µM)
[10]
  Activity: 76%
[11]
  MIC: 2 µg/mL
[12]
  MIC: > 256 µg/mL
[13]
  Activity: 89.4%
[14]
  Activity: 5.4%
[15]
  Activity: 9.8%
[3]
  MIC: > 256 µg/mL
[16]
  Activity: 14.3%
[17]
  MIC: > 256 µg/mL
[18]
  Activity: 1.7%
[19]
  Activity: 2.6%
[20]
  Activity: 3.5%
[4]
  MIC: 256 µg/mL (≈ 836 µM)
[21]
  Activity: 14.4%
[22]
  Activity: 10.6%
[23]
  Activity: 7.7%
[24]
  Activity: 74.5%
[25]
  Activity: 4.9%
[26]
  MIC: 1 µg/mL
[27]
  MIC: 1 µg/mL
[28]
  Activity: 6.5%
[29]
  Activity: 69.2%
[30]
  Activity: 2%
[5]
  MIC: 1 µg/mL (≈ 3.27 µM)
[31]
  Activity: 10.6%
[32]
  Activity: 64.3%
[33]
  Activity: 74%
[34]
  Activity: 13.7%
[35]
  Activity: 1.6%
[36]
  Activity: 55.6%
[37]
  Activity: 15.2%
[6]
  MIC: > 256 µg/mL
[38]
  Activity: 7.2%
[39]
  Activity: 18.3%
[7]
  MIC: > 256 µg/mL
[40]
  MIC: 0.5 µg/mL
[41]
  Activity: 13.7%

## Clc1ccccc1C(c1ccccc1)(c1ccccc1)n1ccnc1 [CLOTRIMAZOLE]
[1]
  MIC: 1 µg/mL (≈ 2.9 µM)
[2]
  MIC: 1 µg/mL (≈ 2.9 µM)
[3]
  MIC: 1 µg/mL (≈ 2.9 µM)
[4]
  MIC: 1 µg/mL (≈ 2.9 µM)
[5]
  MIC: 0.0625 µg/mL (≈ 0.181 µM)
[6]
  MIC: 1 µg/mL (≈ 2.9 µM)
[7]
  MIC: 1 µg/mL (≈ 2.9 µM)
